Key:
[1] = tested on: lesions and adenopathies with high metabolic activity; experiment: [18F]FDG PET/CT imaging in a patient; format: in vivo, human; parameters: key: Lesions and adenopathies positive for high metabolic activity were detected with [^18F]FDG (✓)
From the text: A person (weight 60 kg; height 168 cm) diagnosed with advanced plantar malignant melanoma was enrolled in this study (Ethics Committee: Protocol No. 2023-MN02). The trial was approved based on the microdose concept and proof-of-concept studies. In addition, the ethical standards of the INCan Hospital based on the Declaration of Helsinki regarding human experimentation and the GMP certificate granted to ININ by the Mexican Ministry of Health were taken into account. The patient signed an informed consent form after receiving detailed information about the purpose of the study, which could help decide on treatment and monitor disease progression.
Table 2 provides a detailed analysis of the molecular imaging findings obtained in the [^99mTc]Tc-iPD-L1 SPECT/CT and [^18F]FDG/PET studies.

Stability in human serum = format: in vitro ADME; conditions: human serum (diluted 5x), 37 °C, n = 3
Procedure: (§1) The stability of [^99mTc]Tc-iPD-L1 and [^99mTc]Tc-WL12 was evaluated by diluting the samples in human serum (5x). The radiopharmaceuticals (n = 3) were heated at 37 °C and analyzed at 0.5, 3, and 24 h for radiochemical purity by size-exclusion radio-HPLC (ProteinPak 300SW, Waters Corporation, Milford, CT, USA).
(§2) The radioactivity from [^99mTc]Tc-iPD-L1 bound to serum proteins was 1.3 ± 0.8% at 30 min, 3.2 ± 1.3% at 3 h, and 7.6 ± 1.9% at 24 h. High radiochemical stability (>90% at 24 h) was also observed. In the case of [^99mTc]Tc-WL12, protein binding was 1.0 ± 0.4% at 30 min, 3.3 ± 0.9% at 3 h, and 6.0 ± 1.3% at 24 h, with a radiochemical purity of >90% at 24 h. Therefore, there was no significant difference […] in protein binding and serum stability between the radiotracers.

Serum protein binding = format: in vitro ADME; conditions: human serum (diluted 5x), 37 °C, size-exclusion radio-HPLC, n = 3
Procedure: as §1, §2

[2] = target: T1, human recombinant PD-L1 protein (Homo sapiens, UniProt Q9NZQ7); experiment: Radio-SDS-PAGE molecular recognition by PD-L1 protein; format: binding; conditions: radiopeptide (1 mg/mL) incubated with PD-L1 (200 µg/mL) 30 min at 37 °C; 15% SDS-PAGE, radio-TLC scan
T1 construct: purchased FineTest P6857
T1 sequence (Q9NZQ7 19-290): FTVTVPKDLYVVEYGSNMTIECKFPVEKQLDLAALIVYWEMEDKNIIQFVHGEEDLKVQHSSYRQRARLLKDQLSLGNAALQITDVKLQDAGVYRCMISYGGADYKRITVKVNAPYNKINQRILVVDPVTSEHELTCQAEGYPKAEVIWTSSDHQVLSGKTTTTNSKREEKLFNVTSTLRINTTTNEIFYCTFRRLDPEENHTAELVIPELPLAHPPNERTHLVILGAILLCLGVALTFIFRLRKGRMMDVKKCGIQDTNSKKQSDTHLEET
Procedure: SDS-PAGE gel electrophoresis was performed. Radioactivity distribution was determined using a radio-TLC scanner (Mini-Gita, 60–150 keV, BGO-Crystal, window 25 × 2 mm, thickness 5 mm, resolution optimized for Tc-99m; RayTest, Munich, Germany) to detect [^99mTc]Tc-iPD-L1 and [^99mTc]Tc-WL12 binding to PD-L1 protein.
Briefly, ^99mTc-labeled WL12 and iPD-L1 solutions (100 µL) (1 mg/mL peptide) were incubated with human recombinant PD-L1 protein (100 µL) (200 µg/mL; FineTest; Cat: P6857) (radiopeptide-PD-L1 interaction) or human integrin αVβ3 protein (100 µL) (negative control; 200 µg/mL) (Chemicom, Merck; Burlington, MA, USA) (radiopeptide-integrin interaction) for 30 min at 37 °C, after which the samples were diluted with Laemmli sample buffer (containing 10% SDS, Tris-Cl 125 mM, pH = 6.8, 12.5% glycerol and 0.005% bromophenol blue after dye) to give final protein concentrations of 25 µg/mL. […] Finally, the radioactivity distribution on the gels was scanned using a radio-TLC detector to determine the percentage of [^99mTc]Tc-iPD-L1 or [^99mTc]Tc-WL12 radioactivity associated with proteins.
In vitro-specific recognition of [^99mTc]Tc-iPD-L1 and [^99mTc]Tc-WL12 by the PD-L1 protein was performed using a combination of radio-TLC and SDS-PAGE (radio-SDS-PAGE). […] Therefore, the radioactivity associated with free peptides is in the front of the gel plate (around 60–70 mm). […]

[3] = tested on: HCC827 lung cancer tumors; experiment: Biodistribution in mice bearing HCC827 tumors; format: in vivo, mouse; conditions: mice bearing HCC827 tumors
Procedure: All animal procedures were performed following the Institutional Animal Care and Use Committee requirements under an approved protocol (No. 09-2018-2022) and the Ethical Regulations for the Handling of Laboratory Animals (NOM-062-ZOO-1999). Male Nu/Nu (CINVESTAV, I.PN., Mexico City, Mexico) mice, 6–8 weeks of age, were maintained in an aseptic barrier environment. Mice were inoculated by subcutaneous injection of 1 × 10^6 HCC827 cells/0.1 mL PBS into the upper back. Injection sites were monitored periodically for tumor progression. On day ten after tumor cell inoculation, animals were injected with 18.5 MBq (50 µL) of [^99mTc]Tc-iPD-L1 or 18.5 MBq (50 µL) of [^99mTc]Tc-WL12 by tail vein injection. The animals were sacrificed at 1, 3, and 24 h (n = 3). Kidneys, lungs, heart, liver, spleen, pancreas, small intestine, stomach, muscle, and blood and tumor samples were dissected. Radioactivity was determined in a sodium iodide detector. The results were stated as % injected dose/g.
After 24 h, the activity in tumors was 3.21 ± 0.45 %ID/g ([^99mTc]Tc-WL12) and 5.65 ± 0.98 %ID/g ([^99mTc]Tc-iPD-L1). […] This behavior is related to the higher lipophilicity of [^99mTc]Tc-iPD-L1 compared to [^99mTc]Tc-WL12.

Structure (SMILES)	[18F]FDG Uptake ([1]; patient with plantar malignant melanoma, PET/CT, Mediastinal adenopathies level 4R, 8 and 10L up to 12 mm)	[18F]FDG Uptake ([1]; same patient, Adenopathies in the entire intramuscular tract of the left lower extremity up to 14 mm)	[18F]FDG Uptake ([1]; same patient, Adenopathies of the common, internal, external, and obturator iliac chains up to 26 mm)	[18F]FDG Uptake ([1]; same patient, Left femoral adenopathies of 12 mm)	[18F]FDG Uptake ([1]; same patient, Left inguinal adenopathies forming clusters of 29 mm)	[18F]FDG Uptake ([1]; same patient, Left popliteal hollow adenopathies up to 20 mm)	[18F]FDG Uptake ([1]; same patient, Left retrocrural adenopathy of 9 mm)	[18F]FDG Uptake ([1]; same patient, Liver, poorly defined hypodense images, the largest in segment 7)	[18F]FDG Uptake ([1]; same patient, Retroperitoneal paraaortic and intercavoaortic adenopathies of 14 mm)	[18F]FDG Uptake ([1]; same patient, exophytic lesion in the heel region of the left foot, 67 × 35 mm)	stability in human serum (Stability in human serum; 30 min, 3 h and 24 h, size-exclusion radio-HPLC)	remaining at 24 h (Stability in human serum; 24 h, size-exclusion radio-HPLC (ProteinPak 300SW), read-out: radiochemical stability / radiochemical purity in human serum at 24 h) [%]	radioactivity bound to serum proteins at 30 min (Serum protein binding; 30 min) [%]	radioactivity bound to serum proteins at 3 h (Serum protein binding; 3 h) [%]	radioactivity bound to serum proteins at 24 h (Serum protein binding; 24 h) [%]	radioactivity detected at the distance associated with the PD-L1 protein [2] [%]	activity in blood, liver, and kidney compared to [99mTc]Tc-WL12 [3]
OC[C@H]1OC(O)[C@H]([18F])[C@@H](O)[C@@H]1O (some centres unmarked) [[^18F]FDG]	✓	✓	✓	✓	✓	✓	✓	✓	✓	✓	–	–	–	–	–	–	–
CC(C)C[C@@H]1NC(=O)[C@H](CC(C)C)NC(=O)[C@H](Cc2c[nH]c3ccccc23)NC(=O)[C@H](CO)NC(=O)[C@H](Cc2c[nH]c3ccccc23)NC(=O)[C@@H]2CCCN2C(=O)[C@H](CC(C)C)NC(=O)[C@H](Cc2c[nH]cn2)NC(=O)[C@@H]2CCCN2C(=O)[C@H](CC(N)=O)NC(=O)[C@H](C)NC(=O)[C@H](Cc2ccc(O)cc2)NC(=O)[C@H](CS)NC(=O)[C@H](CCCCNC(=O)c2ccc(NN)nc2)NC1=O [[^99mTc]Tc-iPD-L1, metal not drawn]	–	–	–	–	–	–	–	–	–	–	remained stable	> 90	1.3 ± 0.8	3.2 ± 1.3	7.6 ± 1.9	30	higher activity in blood, liver, and kidney

Reference: article PMC10747430, “^99mTc-Labeled Cyclic Peptide Targeting PD-L1 as a Novel Nuclear Imaging Probe” (Pharmaceutics, 2023)
